Key:
Candida parapsilosis = assay: Antifungal activity in vitro, resazurin growth inhibition screen: Candida parapsilosis; assay type: cell-based; conditions: Candida parapsilosis B66126; for IC50: Lodderomyces parapsilosis, read-out: Inf. D pIC50 (converted)
In short: (§1)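 Growth inhibition is measured with resazurin against untreated fungal culture (100%) and medium blank (0%). Isolates thawed from cryostocks give 10^3 cfu per well in RPMI-MOPS. The dose range peaks at 64 μM in test.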

Sporothrix schenkii = assay: Antifungal activity in vitro, resazurin growth inhibition screen: Sporothrix schenkii; assay type: cell-based; conditions: Sporothrix schenkii B62482; for IC50: read-out: Inf. A pIC50 (converted)
In short: as §1

Aspergillus fumigatus = assay: Antifungal activity in vitro, resazurin growth inhibition screen: Aspergillus fumigatus; assay type: cell-based; conditions: Aspergillus fumigatus B42928; for IC50: read-out: Inf. E pIC50 (converted)
In short: as §1

Trichophyton rubrum = assay: Antifungal activity in vitro, resazurin growth inhibition screen: Trichophyton rubrum; assay type: cell-based; conditions: Trichophyton rubrum B68183; for IC50: read-out: Inf. C pIC50 (converted)
In short: as §1

Microsporum canis = assay: Antifungal activity in vitro, resazurin growth inhibition screen: Microsporum canis; assay type: cell-based; conditions: Microsporum canis B68128; for IC50: read-out: Inf. B pIC50 (converted)
In short: as §1

Cryptococcus neoformans = assay: Antifungal activity in vitro, resazurin growth inhibition screen: Cryptococcus neoformans; assay type: cell-based; conditions: Cryptococcus neoformans B66663; for IC50: read-out: Inf. F pIC50 (converted)
In short: as §1

[1] = system: Trichophyton mentagrophytes; assay: Antifungal activity in vitro, resazurin growth inhibition screen: Trichophyton mentagrophytes; assay type: cell-based; conditions: Trichophyton mentagrophytes B70554; for IC50: read-out: Inf. G pIC50 (converted)
In short: as §1

Rhizomucor miehei = assay: Antifungal activity in vitro, resazurin growth inhibition screen: Rhizomucor miehei; assay type: cell-based; conditions: Rhizomucor miehei IHEM13391; for IC50: read-out: Inf. K pIC50 (converted)
Description: (§2) The standard susceptibility screen was performed in 96-well plates (U-bottom, Greiner Bio-One). Serial dilutions (2-fold or 4-fold) of 20 mM compound stock solutions were made in 100% DMSO, followed by an intermediate dilution step in water. These serial dilutions (10 μl) were then spotted onto test-plates that could be stored in the dark at 4° C. for a maximum period of 2 weeks. An adequate broad dose-range was included with 64 μM as the highest in-test concentration. […] The different fungal species/isolates (Table 3a) were cryopreserved and 1/1000 diluted in medium just prior to use. A standard inoculum of 200 μl containing 10^3 colony-forming unit (cfu) was then added to each well. A positive control (100% growth=fungal culture without antifungal) and a negative control (0% growth=RPMI-MOPS medium) were included on each plate.

Scedosporium prolificans = assay: Antifungal activity in vitro, resazurin growth inhibition screen: Scedosporium prolificans; assay type: cell-based; conditions: Scedosporium prolificans IHEM21157; for IC50: Lomentospora prolificans, read-out: Inf. I pIC50 (converted)
Description: as §2

Scedosporium apiospermum = assay: Antifungal activity in vitro, resazurin growth inhibition screen: Scedosporium apiospermum; assay type: cell-based; conditions: Scedosporium apiospermum IHEM3817; for IC50: read-out: Inf. H pIC50 (converted)
Description: as §2

Rhizopus oryzae = assay: Antifungal activity in vitro, resazurin growth inhibition screen: Rhizopus oryzae; assay type: cell-based; conditions: Rhizopus oryzae IHEM5223; for IC50: Rhizopus arrhizus, read-out: Inf. J pIC50 (converted)
Description: as §2

IC50 (Candida parapsilosis) [µM] | IC50 (Sporothrix schenkii) [µM] | IC50 (Aspergillus fumigatus) [µM] | IC50 (Trichophyton rubrum) [µM] | IC50 (Microsporum canis) [µM] | IC50 (Cryptococcus neoformans) [µM] | IC50 [1] [µM] | melting point | Compound | other results
> 64.6 | > 64.6 | 2.24 | 7.94 | 9.33 | 4.27 | 26.3 | 233.7 to 235.1 °C | CN1C(=O)C(C)(C)c2cc(C3=NCc4c(Cl)cccc4-n4cccc43)ccc21 [Compound 1, 5-(7-chloro-6H-pyrrolo[1,2-a][1,4]benzodiazepin-4-yl)-1,3-dihydro-1,3,3-trimethyl-2H-indol-2-one] | –
0.339 | 2 | 0.269 | 0.0708 | 0.129 | 0.38 | – | 181.3 to 182.7 °C | Clc1cccc2c1CN=C(c1ccc3c(c1)CCC3)c1cccn1-2 [Compound 20, 7-chloro-4-(2,3-dihydro-1H-inden-5-yl)-6H-pyrrolo[1,2-a][1,4]benzodiazepine] | IC50 (Rhizomucor miehei): 13.8 µM; IC50 (Scedosporium prolificans): 0.851 µM; IC50 (Scedosporium apiospermum): 8.91 µM; IC50 (Rhizopus oryzae): > 11.2 µM
1.41 | 1.38 | 0.0468 | 0.17 | 0.49 | 0.339 | 0.603 | 180 to 181.5 °C | Clc1cccc2c1CN=C(c1ccc3c(c1)CCCC3)c1cccn1-2 [Compound 21, 7-chloro-4-(5,6,7,8-tetrahydro-2-naphthalenyl)-6H-pyrrolo[1,2-a][1,4]benzo-diazepine] | IC50 (Rhizomucor miehei): 0.933 µM; IC50 (Scedosporium prolificans): 0.0398 µM; IC50 (Scedosporium apiospermum): 0.12 µM; IC50 (Rhizopus oryzae): 2 µM
> 32.4 | > 32.4 | 14.1 | 1 | 3.02 | 2.51 | – | 199.3 to 201.6 °C | Clc1ccc2c(c1Cl)CN=C(c1ccc3c(c1)CCC3)c1cccn1-2 [Compound 22, 7,8-dichloro-4-(2,3-dihydro-1H-inden-5-yl)-6H-pyrrolo[1,2-a][1,4]benzodiazepine] | –
> 32.4 | > 32.4 | > 32.4 | 3.98 | 8.91 | > 32.4 | 6.03 | 194 to 194.2 °C | Clc1ccc(Cl)c2c1CN=C(c1ccc3c(c1)CCC3)c1cccn1-2 [Compound 24, 7,10-dichloro-4-(2,3-dihydro-1H-inden-5-yl)-6H-pyrrolo[1,2-a][1,4]benzodiazepine] | –
> 64.6 | 2 | 0.155 | 0.794 | 0.832 | 1 | 0.38 | 178.5 to 180.2 °C | Clc1cc(Cl)c2c(c1)CN=C(c1ccc3c(c1)CCC3)c1cccn1-2 [Compound 25, 8,10-dichloro-4-(2,3-dihydro-1H-inden-5-yl)-6H-pyrrolo[1,2-a][1,4]benzodiazepine] | IC50 (Rhizomucor miehei): 39.8 µM; IC50 (Scedosporium apiospermum): > 64.6 µM; IC50 (Rhizopus oryzae): > 64.6 µM
4.37 | 0.912 | 0.141 | 0.129 | 0.158 | 0.209 | 0.219 | 103.7 °C | Clc1cccc2c1-n1cccc1C(c1ccc3c(c1)CCCO3)=NC2 [Compound 43, 10-chloro-4-(3,4-dihydro-2H-1-benzopyran-6-yl)-6H-pyrrolo[1,2-a][1,4]benzo-diazepine] | –
> 64.6 | > 64.6 | > 64.6 | 1.95 | 3.89 | > 64.6 | 25.1 | 214 to 217 °C | O=C1CCc2ccc(C3=NCc4c(Cl)cccc4-n4cccc43)cc21 [Compound 55, 6-(7-chloro-6H-pyrrolo[1,2-a][1,4]benzodiazepin-4-yl)-2,3-dihydro-1H-inden-1-one] | –
3.63 | 30.2 | > 64.6 | > 64.6 | > 64.6 | 7.08 | > 64.6 | > 280 °C | O=C1CCCc2cc(C3=NCc4ccc(Cl)cc4-n4cccc43)ccc21 [Compound 60, 6-(9-chloro-6H-pyrrolo[1,2-a][1,4]benzodiazepin-4-yl)-3,4-dihydro-1 (2H)-naphthalenone] | –
> 64.6 | > 64.6 | > 64.6 | > 64.6 | > 64.6 | > 64.6 | > 64.6 | 107.9 °C (dec.) | O=C1OCc2ccc(C3=NCc4c(Cl)cccc4-n4cccc43)cc21 [Compound 62, 6-(7-chloro-6H-pyrrolo[1,2-a][1,4]benzodiazepin-4-yl)-1(3H)-isobenzofuranone] | –
> 64.6 | > 64.6 | > 64.6 | > 64.6 | > 64.6 | > 64.6 | > 64.6 | 210.5 to 212 °C | O=C1OCc2ccc(C3=NCc4c(Cl)cc(Cl)cc4-n4cccc43)cc21 [Compound 64, 6-(7,9-dichloro-6H-pyrrolo[1,2-a][1,4]benzodiazepin-4-yl)-1 (3H)-isobenzofuranone] | –
0.759 | > 64.6 | > 64.6 | > 64.6 | 64.6 | 0.955 | > 64.6 | 158.9 to 159.3 °C | Fc1cccc2c1CN=C(c1ccc3c(c1)CCC(F)(F)O3)c1cccn1-2 [Compound 70, 4-(2,2-difluoro-3,4-dihydro-2H-1-benzopyran-6-yl)-7-fluoro-6H-pyrrolo[1,2-a]-[1,4]benzodiazepine] | –
– | – | – | – | – | – | – | – | Fc1cc(F)c2c(c1)-n1cccc1C(c1ccc3c(c1)OC(F)(F)O3)=NC2 [Compound 78, 4-(2,2-difluoro-1,3-benzodioxol-5-yl)-7,9-difluoro-6H-pyrrolo[1,2-a][1,4]benzo-diazepine] | Inf. D pIC50 (Candida parapsilosis): 5.64; Inf. A pIC50 (Sporothrix schenkii): 5.28; Inf. K pIC50 (Rhizomucor miehei): <4.19; Inf. E pIC50 (Aspergillus fumigatus): 6.44; Inf. C pIC50 (Trichophyton rubrum): 6.85; Inf. I pIC50 (Scedosporium prolificans): 5.98; Inf. B pIC50 (Microsporum canis): 6.26; Inf. F pIC50 (Cryptococcus neoformans): <4.19; Inf. G pIC50 [1]: 6.24; Inf. H pIC50 (Scedosporium apiospermum): 4.19; Inf. J pIC50 (Rhizopus oryzae): <4.19
– | – | – | – | – | – | – | – | FC1(F)Oc2ccc(C3=NCc4c(Cl)cc(Cl)cc4-n4cccc43)cc2O1 [Compound 79, 7,9-dichloro-4-(2,2-difluoro-1,3-benzodioxol-5-yl)-6H-pyrrolo[1,2-a][1,4]benzo-diazepine] | Inf. D pIC50 (Candida parapsilosis): 5.62; Inf. A pIC50 (Sporothrix schenkii): 4.90; Inf. K pIC50 (Rhizomucor miehei): <4.19; Inf. E pIC50 (Aspergillus fumigatus): 5.71; Inf. C pIC50 (Trichophyton rubrum): 6.29; Inf. I pIC50 (Scedosporium prolificans): 5.98; Inf. B pIC50 (Microsporum canis): 6.28; Inf. F pIC50 (Cryptococcus neoformans): 5.60; Inf. G pIC50 [1]: 5.79; Inf. H pIC50 (Scedosporium apiospermum): 5.72; Inf. J pIC50 (Rhizopus oryzae): <4.19
– | – | – | – | – | – | – | – | CN1CCc2cc(C3=NCc4c(Cl)cccc4-n4cccc43)ccc21 [Compound 83, 7-chloro-4-(2,3-dihydro-1-methyl-1H-indol-5-yl)-6H-pyrrolo[1,2-a][1,4]benzo-diazepine] | Inf. D pIC50 (Candida parapsilosis): 5.28; Inf. A pIC50 (Sporothrix schenkii): 5.14; Inf. K pIC50 (Rhizomucor miehei): <4.19; Inf. E pIC50 (Aspergillus fumigatus): 5.89; Inf. C pIC50 (Trichophyton rubrum): 5.71; Inf. I pIC50 (Scedosporium prolificans): 5.85; Inf. B pIC50 (Microsporum canis): 5.66; Inf. F pIC50 (Cryptococcus neoformans): 5.57; Inf. G pIC50 [1]: 5.06; Inf. H pIC50 (Scedosporium apiospermum): 4.76; Inf. J pIC50 (Rhizopus oryzae): <4.19

Compound | IC50 (Candida parapsilosis) [µM] | IC50 (Sporothrix schenkii) [µM] | IC50 (Aspergillus fumigatus) [µM] | IC50 (Trichophyton rubrum) [µM] | IC50 (Microsporum canis) [µM] | IC50 (Cryptococcus neoformans) [µM] | IC50 [1] [µM] | melting point | other results
Cl.Clc1cccc2c1CNC(c1ccc3c(c1)CCC3)c1cccn1-2 (stereo not drawn) [Compound 12, 7-chloro-4-(2,3-dihydro-1H-inden-5-yl)-5,6-dihydro-4H-pyrrolo[1,2-a][1,4]benzo-diazepine .HCl] | 0.575 | 64.6 | 0.151 | 0.138 | 0.38 | 3.02 | 0.0589 | 242.7 to 243.5 °C | IC50 (Rhizomucor miehei): > 64.6 µM; IC50 (Scedosporium prolificans): > 64.6 µM; IC50 (Scedosporium apiospermum): > 64.6 µM; IC50 (Rhizopus oryzae): > 64.6 µM

Reference: patent US9040524B2, “Antifungal 5,6-dihydro-4H-pyrrolo[1,2-a][1,4]-benzodiazepines and 6H-pyrrolo[1,2-a][1,4]benzodiazepines substituted with bicycle benzene derivatives” (JANSSEN PHARMACEUTICA NV, priority 2010, dated 2015)
